Laboratory results published in patent US12240862B2, “Inhibitors of peptidylarginine deiminases” (Gilead Sciences, Inc., priority 2020, dated 2025).

target: T1, human PAD4 (Homo sapiens, UniProt Q9UM07); assay: In vitro PAD4 BAEE biochemical assay; conditions: human PAD4, BAEE substrate; 5 nM PAD4, 2 mM calcium chloride, 3 mM BAEE; geometric mean of multiple experiments
T1 construct: human PAD4 (NM_012387), A2P663, was PCR amplified; His-SUMO (N, cleaved yes); made in house; host or cells: E. coli BL21(DE3)
T1 sequence (Q9UM07 2-663): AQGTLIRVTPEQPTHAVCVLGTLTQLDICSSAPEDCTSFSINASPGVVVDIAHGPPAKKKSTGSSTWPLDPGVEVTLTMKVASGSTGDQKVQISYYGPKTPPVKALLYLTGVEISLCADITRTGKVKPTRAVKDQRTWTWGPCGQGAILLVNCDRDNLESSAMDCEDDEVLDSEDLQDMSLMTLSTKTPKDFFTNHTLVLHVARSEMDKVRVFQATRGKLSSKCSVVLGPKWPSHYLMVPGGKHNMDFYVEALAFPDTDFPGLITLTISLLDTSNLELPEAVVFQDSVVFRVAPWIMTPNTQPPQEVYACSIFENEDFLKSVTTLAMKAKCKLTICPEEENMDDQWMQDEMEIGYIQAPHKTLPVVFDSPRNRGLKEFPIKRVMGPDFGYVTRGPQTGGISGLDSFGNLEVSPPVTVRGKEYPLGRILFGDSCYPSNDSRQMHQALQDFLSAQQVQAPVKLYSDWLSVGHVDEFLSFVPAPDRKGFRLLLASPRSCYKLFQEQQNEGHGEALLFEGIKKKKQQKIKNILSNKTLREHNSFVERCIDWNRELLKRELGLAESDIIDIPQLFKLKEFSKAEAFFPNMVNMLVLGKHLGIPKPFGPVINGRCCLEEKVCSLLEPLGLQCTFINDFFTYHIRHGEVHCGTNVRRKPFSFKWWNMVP
Method in brief: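 Ammonia generated from BAEE serves as the readout, measured by o-phthalaldehyde after EDTA termination. Final conditions: 5 nM human PAD4 (SUMO tag cleaved), 2 mM CaCl2, 3 mM BAEE, pH 7.6 MOPS buffer, 25 °C for 2 h following a 30-min compound preincubation.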

Question: With `COc1cc(C(=O)N2[C@H]3CC[C@@H]2[C@H](N)C3)cc2nc(-c3cc4ccc([C@@H](C)NC(=O)NC5CCOCC5)nc4n3CC3CC3)c(C)n12` [Example 214, 1-[(1~{R})-1-[2-[7-[(1~{R},2~{R},4~{S})-2-amino-7-azabicyclo[2.2.1]heptane-7-carbonyl]-5-methoxy-3-methylimidazo [1,2-a]pyridin-2-yl]-1-(cyclopropylmethyl)pyrrolo [2,3-b]pyridin-6-yl]ethyl]-3-(oxan-4-yl)urea] as the compound, how does the IC50 read?
Answer: The IC50 was 45 nM.

Question: Which IC50 does the source give for `COc1cc(C(=O)N2[C@H]3CC[C@@H]2[C@H](N)C3)cc2nc(-c3cc4ccc([C@@H](C)N(C)C(=O)c5ccccc5)nc4n3CC3CC3)c(C)n12` [Example 185, ~{N}-[(1~{R})-1-[2-[7-[(1~{R},2~{R},4~{S})-2-amino-7-azabicyclo[2.2.1]heptane-7-carbonyl]-5-methoxy-3-methylimidazo [1,2-a]pyridin-2-yl]-1-(cyclopropylmethyl)pyrrolo [2,3-b]pyridin-6-yl]ethyl]-~{N}-methylbenzamide] here?
Answer: The IC50 was 139 nM.

Question: With `COc1cc(C(=O)N2CCC[C@@H](N)C2)cc2nc(-c3cc4ccc(C(C)n5cc(N)cn5)nc4n3CC3CC3)c(C)n12` (some centres unmarked) [Example 547, [(3~{R})-3-aminopiperidin-1-yl]-[2-[6-[1-(4-aminopyrazol-1-yl)ethyl]-1-(cyclopropylmethyl)pyrrolo[2,3-b]pyridin-2-yl]-5-methoxy-3-methylimidazo[1,2-a]pyridin-7-yl]methanone] as the compound, how does the IC50 read?
Answer: The IC50 was 715 nM.

Question: With `COc1cc(C(=O)N2[C@H]3CC[C@@H]2[C@H](N)C3)cc2nc(-c3cc4ccc([C@@H](C)NC(=O)C(F)(F)F)nc4n3CC3CC3)c(C)n12` [Example 162, ~{N}-[(1~{R})-1-[2-[7-[(1~{R},2~{R},4~{S})-2-amino-7-azabicyclo[2.2.1]heptane-7-carbonyl]-5-methoxy-3-methylimidazo [1,2-a]pyridin-2-yl]-1-(cyclopropylmethyl)pyrrolo [2,3-b]pyridin-6-yl]ethyl]-2,2,2-trifluoroacetamide] as the compound, how does the IC50 read?
Answer: Its IC50 is 99.1 nM.

Question: How did the IC50 turn out when `CCOC(=O)CC(C)c1ccc2cc(-c3nc4cc(C(=O)N5CCC[C@@H](N)C5)cc(OC)n4c3C)n(CC3CC3)c2n1` (some centres unmarked) [Example 598, ethyl 3-[2-[7-[(3~{R})-3-aminopiperidine-1-carbonyl]-5-methoxy-3-methylimidazo [1,2-a]pyridin-2-yl]-1-(cyclopropylmethyl)pyrrolo [2,3-b]pyridin-6-yl] butanoate] was run?
Answer: The IC50 was 312 nM.

Question: How did the IC50 turn out when `COc1cc(C(=O)N2CCC[C@@H](N)C2)cc2nc(-c3cc4ccc([C@@H](C)NC(=O)OCC(C)(C)C)nc4n3CC3CC3)c(C)n12` [Example 256, 2,2-dimethylpropyl~{N}-[(1~{R})-1-[2-[7-[(3~ {R})-3-aminopiperidine-1-carbonyl]-5-methoxy-3-methylimidazo[1,2-a]pyridin-2-yl]-1-(cyclopropylmethyl)pyrrolo [2,3-b]pyridin-6-yl]ethyl] carbamate] was run?
Answer: Its IC50 is 486 nM.

Question: How did the IC50 turn out when `COc1cc(C(=O)N2[C@H]3CC[C@@H]2[C@H](N)C3)cc2nc(-c3cc4ccc([C@@H](C)NC(=O)C56CC(C5)C6)nc4n3CC3CC3)c(C)n12` [Example 160, ~{N}-[(1~{R})-1-[2-[7-[(1~{R},2~{R},4~{S})-2-amino-7-azabicyclo[2.2.1]heptane-7-carbonyl]-5-methoxy-3-methylimidazo [1,2-a]pyridin-2-yl]-1-(cyclopropylmethyl)pyrrolo [2,3-b]pyridin-6-yl]ethyl]bicyclo[1.1.1]pentane-1-carboxamide] was run?
Answer: The IC50 was 53.2 nM.

Question: Which IC50 does the source give for `COc1cc(C(=O)N2[C@H]3CC[C@@H]2[C@H](N)C3)cc2nc(-c3cc4ccc(C(C)CC(N)=O)nc4n3CC3CC3)c(C)n12` (some centres unmarked) [Example 520, 3-[2-[7-[(1~{R},2~{R}, 4~{S})-2-amino-7-azabicyclo[2.2.1]heptane-7-carbonyl]-5-methoxy-3-methylimidazo[1,2-a]pyridin-2-yl]-1-(cyclopropylmethyl)pyrrolo[2,3-b]pyridin-6-yl]butanamide] here?
Answer: Its IC50 is 73.8 nM.

Question: With `COc1cc(C(=O)N2[C@H]3CC[C@@H]2[C@H](N)C3)cc2nc(-c3cc4ccc([C@@H](C)NC(=O)c5ccccc5)nc4n3CC3CC3)c(C3CC3)n12` [Example 142, ~{N}-[(1~{R})-1-[2-[7-[(1~{R},2~{R},4~{S})-2-amino-7-azabicyclo[2.2.1]heptane-7-carbonyl]-3-cyclopropyl-5-methoxyimidazo[1,2-a]pyridin-2-yl]-1-(cyclopropylmethyl)pyrrolo [2,3-b]pyridin-6-yl]ethyl] benzamide] as the compound, how does the IC50 read?
Answer: The IC50 was 121 nM.

Question: For `CCc1ccc2cc(-c3nc4cc(C(=O)N5[C@H]6CC[C@@H]5[C@H](N)C6)cc(OC)n4c3C)n(Cc3cccnc3)c2n1` [Example 513, [(1~{R},2~{R},4~{S})-2-amino-7-azabicyclo [2.2.1]heptan-7-yl]-[2-[6-ethyl-1-(pyridin-3-ylmethyl)pyrrolo [2,3-b]pyridin-2-yl]-5-methoxy-3-methylimidazo[1,2-a]pyridin-7-yl]methanone], which IC50 is on record?
Answer: Its IC50 is 179 nM.

Question: Which IC50 does the source give for `COc1cc(C(=O)N2[C@H]3CC[C@@H]2[C@H](N)C3)cc2nc(-c3cc4ccc([C@@H](C)NC(=O)Nc5ccc(F)cc5F)nc4n3CC3CC3)c(C)n12` [Example 198, 1-[(1~{R})-1-[2-[7-[(1~{R},2~{R},4~{S})-2-amino-7-azabicyclo[2.2.1]heptane-7-carbonyl]-5-methoxy-3-methylimidazo [1,2-a]pyridin-2-yl]-1-(cyclopropylmethyl)pyrrolo [2,3-b]pyridin-6-yl]ethyl]-3-(2,4-difluorophenyl)urea] here?
Answer: Its IC50 is 185 nM.

Question: How did the IC50 turn out when `COc1cc(C(=O)N2C[C@H](N)CC[C@@H]2C)cc2nc(-c3cc4ccc(N(C(F)F)S(C)(=O)=O)nc4n3CC3CC3)c(CC3CC3)n12` [Example 405, ~{N}-[2-[7-[(2~{S},5~{R})-5-amino-2-methylpiperidine-1-carbonyl]-3-(cyclopropylmethyl)-5-methoxyimidazo[1,2-a]pyridin-2-yl]-1-(cyclopropylmethyl)pyrrolo [2,3-b]pyridin-6-yl]-~{N}-(difluoromethyl) methanesulfonamide] was run?
Answer: Its IC50 is 589 nM.

Question: For “~{N}-[2-[7-[(3~{S}, 4~{R})-3-amino-4- hydroxypiperidine-1- carbonyl]-3-ethyl- 5-methoxyimidazo[1,2- a]pyridin-2-yl]-1- (cyclopropylmethyl)pyrrolo [2,3-b]pyridin-6-yl]-~{N}- (difluoromethyl) methanesulfonamide [Example 400]”, which IC50 is on record?
Answer: The IC50 was 847 nM.

Question: Which IC50 does the source give for `COc1cc(C(=O)N2[C@H]3CC[C@@H]2[C@H](N)C3)cc2nc(-c3cc4ccc([C@@H](C)NC(=O)[C@@H](C)O)nc4n3CC3CC3)c(C)n12` [Example 91, (2~{R})-~{N}-[(1~{R})-1-[2-[7-[(1~{R},2~{R},4~{S})-2-amino-7-azabicyclo[2.2.1]heptane-7-carbonyl]-5-methoxy-3-methylimidazo [1,2-a]pyridin-2-yl]-1-(cyclopropylmethyl)pyrrolo [2,3-b]pyridin-6-yl]ethyl]-2-hydroxypropanamide] here?
Answer: The IC50 was 43 nM.

Question: How did the IC50 turn out when `COc1cc(C(=O)N2[C@H]3CC[C@@H]2[C@H](N)C3)cc2nc(-c3cc4ccc([C@@H](C)NC(=O)NC5COC5)nc4n3CC3CC3)c(C)n12` [Example 229, 1-[(1~{R})-1-[2-[7-[(1~{R},2~{R},4~{S})-2-amino-7-azabicyclo[2.2.1]heptane-7-carbonyl]-5-methoxy-3-methylimidazo [1,2-a]pyridin-2-yl]-1-(cyclopropylmethyl)pyrrolo [2,3-b]pyridin-6-yl]ethyl]-3-(oxetan-3-yl)urea] was run?
Answer: Its IC50 is 108 nM.

Question: How did the IC50 turn out when `COc1cc(C(=O)N2CCC[C@@H](N)C2)cc2nc(-c3cc4ccc(Cl)nc4n3CC3CC3)c(C)n12` [Example 599, [(3~{R})-3-aminopiperidin-1-yl]-[2-[6-chloro-1-(cyclopropylmethyl)pyrrolo [2,3-b]pyridin-2-yl]-5-methoxy-3-methylimidazo[1,2-a]pyridin-7-yl]methanone] was run?
Answer: Its IC50 is 1910 nM.

Question: `CCc1ccc2cc(-c3nc4cc(C(=O)N5[C@H]6CC[C@@H]5[C@H](N)C6)cc(OC)n4c3N)n(CC3CC3)c2n1` [Example 552, [(1~{R},2~{R},4~{S})-2-amino-7-azabicyclo [2.2.1]heptan-7-yl]-[3-amino-2-[1-(cyclopropylmethyl)-6-ethylpyrrolo[2,3-b]pyridin-2-yl]-5-methoxyimidazo [1,2-a]pyridin-7-yl]methanone] was tested. Which IC50 did it give?
Answer: The IC50 was 153 nM.

Question: With `COc1cc(C(=O)N2CC3(CNC3)C2)cc2nc(-c3cc4ccc(N(C(F)F)S(C)(=O)=O)nc4n3CC3CC3)c(C)n12` [Example 367, ~{N}-[1-(cyclopropylmethyl)-2-[7-(2,6-diazaspiro[3.3]heptane-2-carbonyl)-5-methoxy-3-methylimidazo[1,2-a]pyridin-2-yl]pyrrolo[2,3-b]pyridin-6-yl]-~{N}-(difluoromethyl) methanesulfonamide] as the compound, how does the IC50 read?
Answer: Its IC50 is 5310 nM.

Question: For `COc1cc(C(=O)N2CCC[C@@H](N)C2)cc2nc(-c3cc4ccc([C@@H](C)N5CCCC5=O)nc4n3CC3CC3)c(C)n12` [Example 279, 1-[(1~{R})-1-[2-[7-[(3~{R})-3-aminopiperidine-1-carbonyl]-5-methoxy-3-methylimidazo [1,2-a]pyridin-2-yl]-1-(cyclopropylmethyl)pyrrolo [2,3-b]pyridin-6-yl]ethyl] pyrrolidin-2-one], which IC50 is on record?
Answer: The IC50 was 234 nM.

Question: Which IC50 does the source give for `COc1cc(C(=O)N2[C@H]3CC[C@@H]2[C@H](N)C3)cc2nc(-c3cc4ccc(N5CCCC(c6ccccc6)S5(=O)=O)nc4n3CC3CC3)c(C)n12` (some centres unmarked) [Example 469, [(1~{R},2~{R},4~{S})-2-amino-7-azabicyclo [2.2.1]heptan-7-yl]-[2-[1-(cyclopropylmethyl)-6-(1,1-dioxo-6-phenylthiazinan-2-yl)pyrrolo[2,3-b]pyridin-2-yl]-5-methoxy-3-methylimidazo[1,2-a]pyridin-7-yl]methanone] here?
Answer: Its IC50 is 781 nM.
